Laboratory results taken from ChEMBL document CHEMBL5380812, “Structural Dynamics-Driven Discovery of Anticancer and Antimetastatic Effects of Diltiazem and Glibenclamide Targeting Urokinase Receptor” (J Med Chem, 2023).
Active and inactive are the calls of the source. The calls are words filed in the database; no cut-off is given here.

Tests used:
[1] = tested on: Urokinase plasminogen activator surface receptor (Homo sapiens), Q03405 [UNDEFINED MUTATION]; conditions: dose 100.0 µM
Description: Binding affinity to uPAR H47C/N259C (unknown origin) mutant assessed as response unit at 100 uM by surface plasmon resonance (SPR) analysis relative to control

MCF7 [2] = experiment: Antiinvasive activity against short hairpin RNA sequence of uPA containing vector transfected human MCF7-shuPA cells assessed as suppression of invasive property at upto 100 uM incubated for 24 hrs by Crystal violet staining based - Transwell assay; format: functional, cell-based
MCF7 [3] = experiment: Antiinvasive activity against empty vector transfected human MCF7 cells assessed as suppression of invasive property at upto 100 uM incubated for 24 hrs by Crystal violet staining based - Transwell assay; format: functional, cell-based
CT26 [4] = experiment: Antiinvasive activity against mouse CT26 cells assessed as suppression of invasive property incubated for 24 hrs by Crystal violet staining based - Transwell assay; format: functional, cell-based; conditions: dose 0-100 µM
[5] = Toxicity in Balb/c mouse homografted with mouse CT-26-muPAR-mCherry cells assessed as vascular hyperemia at 100 mg/kg, po every two days for 15 days; format: organism-based; conditions: in vivo, 360 h, time 15 day
CT26 [6] = experiment: In vivo antimetastatic activity against mouse CT26-muPAR-mCherry cells intravenously homografted in Balb/c mouse lung metastatic model assessed as suppression of mCherry fluorescence in lung at 100 mg/kg, po every two days for 15 days relative to control; format: functional; conditions: time 15 day
[7] = Toxicity in Balb/c mouse homografted with mouse CT-26-muPAR-mCherry cells assessed as adverse effect at 100 mg/kg, po every two days for 15 days; format: organism-based; conditions: in vivo, 360 h, time 15 day
PC-3 [8] = experiment: Antiinvasive activity against human PC-3 cells expressing high uPAR assessed as inhibition of invasive property incubated for 24 hrs by Crystal violet staining based - Transwell assay; format: functional, cell-based; conditions: dose 0-100 µM
MDA-MB-231 = experiment: Antiinvasive activity against human MDA-MB-231 cells expressing moderate uPAR assessed as inhibition of invasive property at upto 100 uM incubated for 24 hrs by Crystal violet staining based - Transwell assay; format: functional, cell-based
PC-3 [9] = experiment: Antiinvasive activity against human PC-3 cells expressing high uPAR assessed as inhibition of invasive property without matrigel at upto 100 uM incubated for 24 hrs by crystal violet staining based - Transwell assay; format: functional, cell-based
CT26 [10] = experiment: In vivo antitumor activity against mouse CT26 cells subcutaneously homografted in Balb/c mouse model assessed as suppression of tumor growth at 100 mg/kg, po every two days for 14 days; format: functional, organism-based; conditions: time 14.0 day
CT26 [11] = experiment: In vivo antimetastatic activity against mouse CT-26-muPAR-mCherry cells intravenously homografted in Balb/c mouse lung metastatic model assessed as suppression of hyperplasia-induced lung weight increase at 30 to 100 mg/kg, po every two days for 15 days; format: functional, organism-based; conditions: dose 30-100 mg/kg, time 15.0 day
HEK-293T = experiment: Antimetastatic activity against uPAR-overexpressing HEK293T cells assessed as suppression of invasive property incubated for 24 hrs by Crystal violet staining based - Transwell assay; format: functional, cell-based; conditions: Homo sapiens, dose 0-100 µM
HUVEC = experiment: Antiangiogenic activity against HUVEC cells assessed as inhibition of formation of capillary-like polygons/fork-like branches in serum free medium at 100 uM; format: functional, cell-based; conditions: Homo sapiens
[12] = Toxicity in Balb/c mouse homografted with mouse CT26 cells assessed as body weight at 100 mg/kg, po every two days for 14 days; format: organism-based; conditions: in vivo, 336 h, time 14 day
CT26 [13] = experiment: In vivo antimetastatic activity against mouse CT-26-muPAR-mCherry cells intravenously homografted in Balb/c mouse lung metastatic model assessed as suppression of metastases of cancer cells around vessels at 100 mg/kg, po every two days for 15 days by histopathological analysis; format: functional, organism-based; conditions: time 15.0 day
CT26 [14] = experiment: In vivo antimetastatic activity against mouse CT-26-muPAR-mCherry cells intravenously homografted in Balb/c mouse lung metastatic model assessed as suppression of hyperplastic nodules on the pleural surface in lung at 30 to 100 mg/kg, po every two days for 15 days; format: functional, organism-based; conditions: dose 30-100 mg/kg, time 15.0 day
CT26 [15] = experiment: Antiinvasive activity against mouse CT26-muPAR-mCherry cells assessed as suppression of invasive property incubated for 24 hrs by Crystal violet staining based - Transwell assay; format: functional, cell-based; conditions: dose 0-100 µM
PC-3 [16] = experiment: Inhibition of cell migration in human PC-3 cells assessed as wound healing measured upto 100 uM; format: cell-based
CT26 [17] = experiment: In vivo antimetastatic activity against mouse CT26-muPAR-mCherry cells intravenously homografted in Balb/c mouse lung metastatic model assessed as suppression of mCherry fluorescence in lung at 30 mg/kg, po every two days for 15 days relative to control; format: functional; conditions: time 15 day
[18] = Inhibition of human recombinant […]/uPAR (unknown origin) interaction measured after 2 hrs by ELISA
PC-3 [19] = experiment: Cytotoxicity against human PC-3 cells assessed as survival rate without matrigel at upto 100 uM; format: toxicity, cell-based; conditions: pc-3, 100 µM
[20] = molecular target: Urokinase plasminogen activator surface receptor (Homo sapiens, UniProt Q03405, H47C/N259C); experiment: Binding affinity to uPAR H47C/N259C (unknown origin) mutant assessed as equilibrium dissociation constant by surface plasmon resonance (SPR) analysis relative to control
Chain of Urokinase plasminogen activator surface receptor (Q03405 23-305 H69C/N281C limits assumed): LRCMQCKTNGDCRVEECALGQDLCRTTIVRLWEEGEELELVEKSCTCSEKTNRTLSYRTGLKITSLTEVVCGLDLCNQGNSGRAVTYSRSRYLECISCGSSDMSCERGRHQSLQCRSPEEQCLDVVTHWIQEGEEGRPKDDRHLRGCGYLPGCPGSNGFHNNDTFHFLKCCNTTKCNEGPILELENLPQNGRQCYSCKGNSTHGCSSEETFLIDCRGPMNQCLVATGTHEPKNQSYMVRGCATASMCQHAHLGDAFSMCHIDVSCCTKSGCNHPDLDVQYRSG

CT26 [21] = experiment: In vivo antitumor activity against mouse CT26 cells subcutaneously homografted in Balb/c mouse model assessed as tumor weight at 100 mg/kg, po every two days for 14 days relative to control; format: functional; conditions: CT26, 336 h, time 14 day
Caco-2 = experiment: Antiinvasive activity against uPAR-negative human Caco-2 cells assessed as inhibition of invasive property at upto 100 uM incubated for 24 hrs by Crystal violet staining based - Transwell assay; format: functional, cell-based
CT26 [22] = experiment: In vivo antimetastatic activity against mouse CT-26-muPAR-mCherry cells intravenously homografted in Balb/c mouse lung metastatic model assessed as suppression of metastases of cancer cells around vessels at 300 mg/kg, po every two days for 15 days by histopathological analysis; format: functional, organism-based; conditions: time 15.0 day
CT26 [23] = experiment: In vivo antimetastatic activity against mouse CT-26-muPAR-mCherry cells intravenously homografted in Balb/c mouse lung metastatic model assessed as suppression of hyperplastic nodules on the pleural surface in lung at 100 to 300 mg/kg, po every two days for 15 days; format: functional, organism-based; conditions: dose 100-300 mg/kg, time 15.0 day
[24] = Toxicity in Balb/c mouse homografted with mouse CT26 cells assessed as body weight at 300 mg/kg, po every two days for 14 days; format: organism-based; conditions: in vivo, 336 h, time 14 day
CT26 [25] = experiment: In vivo antimetastatic activity against mouse CT-26-muPAR-mCherry cells intravenously homografted in Balb/c mouse lung metastatic model assessed as suppression of hyperplasia-induced lung weight increase at 30 to 100 to 300 mg/kg, po every two days for 15 days; format: functional, organism-based; conditions: dose 100-300 mg/kg, time 15.0 day
CT26 [26] = experiment: In vivo antimetastatic activity against mouse CT26-muPAR-mCherry cells intravenously homografted in Balb/c mouse lung metastatic model assessed as suppression of mCherry fluorescence in lung at 300 mg/kg, po every two days for 15 days relative to control; format: functional; conditions: time 15 day
CT26 [27] = experiment: In vivo antitumor activity against mouse CT26 cells subcutaneously homografted in Balb/c mouse model assessed as suppression of tumor growth at 300 mg/kg, po every two days for 14 days; format: functional, organism-based; conditions: time 14.0 day
CT26 [28] = experiment: In vivo antitumor activity against CT26 cells subcutaneously homografted in Balb/c mouse model assessed as tumor weight at 300 mg/kg, po every two days for 14 days relative to control; format: functional; conditions: CT26, 336 h, time 14 day
[29] = Toxicity in Balb/c mouse homografted with mouse CT-26-muPAR-mCherry cells assessed as adverse effect at 300 mg/kg, po every two days for 15 days; format: organism-based; conditions: in vivo, 360 h, time 15 day

Chain of Urokinase plasminogen activator surface receptor (Homo sapiens), Q03405 [UNDEFINED MUTATION] (Q03405 whole entry, looked up, stated change not applied): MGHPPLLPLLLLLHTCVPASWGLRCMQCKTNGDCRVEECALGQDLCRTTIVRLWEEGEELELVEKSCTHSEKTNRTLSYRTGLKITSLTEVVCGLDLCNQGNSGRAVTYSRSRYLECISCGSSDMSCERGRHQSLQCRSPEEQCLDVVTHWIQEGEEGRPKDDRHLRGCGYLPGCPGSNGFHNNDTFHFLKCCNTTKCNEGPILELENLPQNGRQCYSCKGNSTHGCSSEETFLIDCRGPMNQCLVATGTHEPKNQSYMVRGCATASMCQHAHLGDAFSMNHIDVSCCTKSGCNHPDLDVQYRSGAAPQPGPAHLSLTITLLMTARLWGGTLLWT

CC(=O)OCC(CCn1cnc2cnc(N)nc21)COC(C)=O
RU [1]: -4

CC(C)(C)c1ccc(C(=O)CCCN2CCC(OC(c3ccccc3)c3ccccc3)CC2)cc1
RU [1]: 1.5

CC(C)=CCOc1c2occc2cc2ccc(=O)oc12
RU [1]: 1

CC(CCc1ccc(O)cc1)NCCc1ccc(O)c(O)c1 (centres undefined)
RU [1]: 5.5

CCCCC1C(=O)N(c2ccccc2)N(c2ccccc2)C1=O
RU [1]: 2.7

CCCCCOC(=O)Nc1nc(=O)n([C@@H]2O[C@@H](O)[C@@H](O)[C@H]2O)cc1F
RU [1]: 1

CCN(CC)CCCC(C)Nc1c2ccc(Cl)cc2nc2ccc(OC)cc12 (centres undefined)
RU [1]: 20

CCN(CC)CCOC(=O)c1ccc(N)cc1
RU [1]: 17

CCN[C@H]1CN(CCCOC)S(=O)(=O)c2sc(S(N)(=O)=O)cc21
RU [1]: -1

CCOC(=O)Nc1ccc(NCc2ccc(F)cc2)nc1N
RU [1]: 15

CCc1c(C)[nH]c2c1C(=O)C(CN1CCOCC1)CC2 (centres undefined)
RU [1]: 8

CCc1c(C)[nH]c2c1C(=O)CC(CN1CCOCC1)C2 (centres undefined)
RU [1]: 11

CN(C)CCC=C1c2ccccc2CCc2ccccc21
RU [1]: 11

CN(C)CCCC1(c2ccc(F)cc2)OCc2cc(C#N)ccc21 (centres undefined)
RU [1]: 7

CN/C(=N\CCSCc1nc[nH]c1C)NC#N
RU [1]: -3

CNC(=C[N+](=O)[O-])NCCSCc1ccc(CN(C)C)o1
RU [1]: 0

CNCC(O)c1ccc(O)cc1 (centres undefined)
RU [1]: 0.5

COC(=O)[C@@H](N)CCCNC(=N)N[N+](=O)[O-]
RU [1]: 0

COc1ccc(CN(CCN(C)C)c2ccccc2)cc1
RU [1]: 1.7

Cc1ccc(S(=O)(=O)N[C@@H](CCCCN)C(=O)CCl)cc1
RU [1]: 0

NC(CO)C(=O)NNCc1ccc(O)c(O)c1O (centres undefined)
RU [1]: 0

O=C(/C=C/c1ccc(O)c(O)c1)OCCc1ccccc1
RU [1]: 8

O=C(O)c1cccnc1Nc1cccc(C(F)(F)F)c1
RU [1]: 7

O=C1CC2(CCCC2)CC(=O)N1CCCCN1CCN(c2ncccn2)CC1
RU [1]: 1

COc1ccc([C@@H]2Sc3ccccc3N(CCN(C)C)C(=O)[C@@H]2OC(C)=O)cc1 [DILTIAZEM]
Activity (MCF7 [2]): Active
Activity (MCF7 [3]): Active
Activity (CT26 [4]): Dose-Dependent Effect
Activity [5]: Toxic
Activity (CT26 [6]): 76%
Activity [7]: Non-Toxic
Activity (PC-3 [8]): Dose-Dependent Effect
Activity (MDA-MB-231): Active
Activity (PC-3 [9]): Active
Activity (CT26 [10]): Active
Activity (CT26 [11]): Active
Activity (HEK-293T): Dose-Dependent Effect
Activity (HUVEC): Active
Activity [12]: Non-Toxic
Activity (CT26 [13]): Active
Activity (CT26 [14]): Active
Activity (CT26 [15]): Dose-Dependent Effect
Activity (PC-3 [16]): Active
Activity (CT26 [17]): 61%
IC50 [18]: 58.6 µM
Activity (PC-3 [19]): Non-Toxic
Kd [20]: 39.2 µM
inhibition in vivo at 100 mg/kg (CT26 [21]): 73.2%
RU [1]: 12
Activity (Caco-2): inactive

COc1ccc(Cl)cc1C(=O)NCCc1ccc(S(=O)(=O)NC(=O)NC2CCCCC2)cc1 [GLYBURIDE]
Activity (MCF7 [2]): Active
Activity (CT26 [22]): Active
Activity (MCF7 [3]): Active
Activity (CT26 [4]): Dose-Dependent Effect
Activity (CT26 [6]): 70%
Activity (PC-3 [8]): Dose-Dependent Effect
Activity (MDA-MB-231): Active
Activity (PC-3 [9]): Active
Activity (CT26 [23]): Active
Activity [24]: Non-Toxic
Activity (HEK-293T): Dose-Dependent Effect
Activity (HUVEC): Active
Activity (CT26 [25]): Active
Activity (CT26 [15]): Dose-Dependent Effect
Activity (PC-3 [16]): Active
Activity (CT26 [26]): 83%
IC50 [18]: 69.5 µM
Activity (CT26 [27]): Active
Activity (PC-3 [19]): Non-Toxic
Kd [20]: 40.4 µM
RU [1]: 33
inhibition in vivo at 300 mg/kg (CT26 [28]): 62.8%
Activity (Caco-2): inactive
Activity [29]: Non-Toxic

O=C(CCCN1CCC(O)(c2ccc(Cl)cc2)CC1)c1ccc(F)cc1 [HALOPERIDOL]
Kd [20]: 41.2 µM
RU [1]: 10

CNCCCC12CCC(c3ccccc31)c1ccccc12 [MAPROTILINE]
Kd [20]: 79.7 µM
RU [1]: 13

O=C(O)CCc1nc(-c2ccccc2)c(-c2ccccc2)o1 [OXAPROZIN]
Kd [20]: 114 µM
RU [1]: 20
